{"source": "patent US11236124B2", "about": "“Method and composition for hydrolyzing eggshell membrane” (EGGNOVO S.L., priority 2017, dated 2022)", "molecules": {"B1": {"name": "Papain: protease of plant origin with endopeptidase activity from the group of cysteine proteases (protein, UniProt P00784 134-345, looked up)", "Papain": "IPEYVDWRQKGAVTPVKNQGSCGSCWAFSAVVTIEGIIKIRTGNLNEYSEQELLDCDRRSYGCNGGYPWSALQLVAQYGIHYRNTYPYEGVQRYCRSREKGPYAAKTDGVRQVQPYNEGALLYSIANQPVSVVLEAAGKDFQLYRGGIFVGPCGNKVDHAVAAVGYGPNYILIKNSWGTGWGENGYIRIKRGTGNSYGVCGLYTSSFYPVKN"}}, "format_in_all_cases": "biochemical", "key": {"eggshell membrane [1]": {"tested_on": "eggshell membrane", "experiment": "Testing of denaturing agents for eggshell membrane dissolution", "details": "denaturing agent used for eggshell membrane hydrolysis"}, "eggshell membrane [2]": {"tested_on": "eggshell membrane", "experiment": "Eggshell membrane solubilization with different enzymes and reducing agents (Example 1)", "details": "10 mg eggshell membrane/ml", "description": "A solution for solubilizing eggshell membrane was prepared at a ratio of 10 mg of eggshell membrane/ml of solution. Said solution comprised a denaturing agent, and more specifically a denaturing agent having detergent properties and an amphiphilic nature such as SDS, at a concentration of 0.5-5%. The solution also comprised a reducing agent, for which solutions of the following reducing agents were prepared at a concentration of 100 mM-1 M: sodium sulfite (Na2SO3), sodium hydrosulfite (Na2S2O4), sodium hydroxymethanesulfinate (HOCH2SO2Na), sodium metabisulfite (Na2S2O5), and dithiothreitol (DTT); these solutions were tested successively. Finally, a suitable buffer was added for maintaining the pH depending on the enzyme that was going to be used, having a concentration of 25-50 mM. Once the pH was adjusted with a pH-meter to the optimum pH for each enzyme, the enzyme previously prepared according to the manufacturer's specification at a concentration of 1% was added to the solution, such that the final concentration of the enzyme with respect to the total solution was 0.05-0.5%. The same was performed with each of the enzymes used in the present example.\nOnce all the components were mixed and homogenized, said mixture was incubated at the maximum temperature of activity of each enzyme. The level of hydrolysis was assessed after 1, 12, and 24 hours of incubation and the results were compared against a control that is performed and only differs from the test solutions by the absence of enzyme."}, "eggshell membrane [3]": {"tested_on": "eggshell membrane", "experiment": "Eggshell membrane solubilization with papain at different Na2S2O5 concentrations, with or without SDS (Example 2)", "details": "38° C., 12 h, 10 mg membrane/ml", "description": "Specifically, a solution for solubilizing 10 mg of eggshell membrane/ml of solution was prepared. Said solution only contained 100 mM sodium metabisulfite (Na2S2O5) (1). Three other similar solutions were prepared with an increasing order of concentration of Na2S2O5, i.e., 5 mM (2), 50 mM (3), and 100 mM (4), but in this case they contained 0.5-5% SDS in 50 mM HEPES buffer adjusted to pH 6.2 with a pH-meter. It was verified that the optimum range of sodium metabisulfite (Na2S2O5) for the present invention is between 50 and 150 mM. Papain previously activated in a 0.15 M sodium chloride solution was added such that the final concentration of the enzyme in the mixture was 0.05-0.5%. Once all the components were mixed and homogenized, said mixture was incubated at 38° C. for 12 h. The level of hydrolysis was evaluated after 12 hours of incubation and the results were compared against a control that is performed and only differs from the test solutions by the absence of enzyme."}, "eggshell membrane [4]": {"tested_on": "eggshell membrane", "experiment": "Hydrolyzation of different amounts of eggshell membrane with 0.1% papain (Example 3)", "details": "papain 0.1%, 12 h, 100 mM Na2S2O5, SDS, pH 6.2, 38° C.", "description": "Specifically, different solutions with different amounts of eggshell membrane were prepared such that final concentrations with respect to the total solution volume of 20, 30, 40, 50, 70, 100, and 150 mg of eggshell membrane/ml of solution were obtained. The solution contained 100 mM sodium metabisulfite (Na2S2O5), 0.5-5% SDS in 50 mM HEPES buffer adjusted to pH 6.2 with a pH-meter. 1% papain previously activated in a 0.15 M sodium chloride solution was then added such that the concentration of the enzyme with respect to the final volume of the mixture was 0.05-0.5%. Once all the components were mixed and homogenized, said mixture was incubated at 38° C. for 12 h and the results were compared against a control that is performed and only differs from the test solutions by the absence of enzyme. A clear, amber-colored solution was obtained, the color of which intensifies as the membrane concentration increases, in addition to the presence of a precipitate increasing, which indicates a lower level of hydrolysis."}, "[5]": {"details": "SDS + Na2S2O4, 24 h, pH optimum of each enzyme"}, "[6]": {"details": "SDS + Na2SO3, 24 h, pH optimum of each enzyme"}, "[7]": {"details": "SDS + DTT, 24 h, pH optimum of each enzyme"}, "[8]": {"details": "SDS + HOCH2SO2Na, 24 h, pH optimum of each enzyme"}, "[9]": {"details": "SDS + Na2S2O5, 24 h, pH optimum of each enzyme"}}}
{"molecule": "CCCCCCCCCCCCOS(=O)(=O)[O-].[Na+]", "note": "[SDS, sodium lauryl sulfate]", "values": [{"measurement": "dissolution results with the denaturing agent", "setting": "eggshell membrane [1]", "value": "excellent results"}]}
{"molecule": "NC(N)=O", "note": "[urea]", "values": [{"measurement": "dissolution results with the denaturing agent", "setting": "eggshell membrane [1]", "value": "without obtaining satisfactory dissolution results"}]}
{"molecule": "Bromelain", "values": [{"measurement": "% solubilized", "setting": "eggshell membrane [2]; SDS + DTT, 1 h, pH 6.2", "value": 100, "unit": "%"}, {"measurement": "% solubilized", "setting": "eggshell membrane [2]; SDS + HOCH2SO2Na, 12 h, pH 6.2", "value": 100, "unit": "%"}, {"measurement": "% solubilized", "setting": "eggshell membrane [2]; [5]", "value": 0, "unit": "%"}, {"measurement": "% solubilized", "setting": "eggshell membrane [2]; SDS + Na2S2O5, 1 h, pH 6.2", "value": 100, "unit": "%"}, {"measurement": "% solubilized", "setting": "eggshell membrane [2]; [6]", "value": 0, "unit": "%"}]}
{"molecule": "Ficin", "values": [{"measurement": "% solubilized", "setting": "eggshell membrane [2]; [7]", "value": 50, "unit": "%"}, {"measurement": "% solubilized", "setting": "eggshell membrane [2]; [8]", "value": 0, "unit": "%"}, {"measurement": "% solubilized", "setting": "eggshell membrane [2]; [5]", "value": 0, "unit": "%"}, {"measurement": "% solubilized", "setting": "eggshell membrane [2]; [9]", "value": 50, "unit": "%"}, {"measurement": "% solubilized", "setting": "eggshell membrane [2]; [6]", "value": 0, "unit": "%"}]}
{"molecule": "Pepsin", "values": [{"measurement": "% solubilized", "setting": "eggshell membrane [2]; [7]", "value": 0, "unit": "%"}, {"measurement": "% solubilized", "setting": "eggshell membrane [2]; [8]", "value": 0, "unit": "%"}, {"measurement": "% solubilized", "setting": "eggshell membrane [2]; [5]", "value": 0, "unit": "%"}, {"measurement": "% solubilized", "setting": "eggshell membrane [2]; [9]", "value": 0, "unit": "%"}, {"measurement": "% solubilized", "setting": "eggshell membrane [2]; [6]", "value": 0, "unit": "%"}]}
{"molecule": "B1", "values": [{"measurement": "% solubilized", "setting": "eggshell membrane [2]; SDS + DTT, 1 h, pH 6.2", "value": 100, "unit": "%"}, {"measurement": "% solubilized", "setting": "eggshell membrane [2]; SDS + HOCH2SO2Na, 12 h, pH 6.2", "value": 100, "unit": "%"}, {"measurement": "% solubilized", "setting": "eggshell membrane [2]; [5]", "value": 0, "unit": "%"}, {"measurement": "% solubilized", "setting": "eggshell membrane [2]; SDS + Na2S2O5, 1 h, pH 6.2", "value": 100, "unit": "%"}, {"measurement": "% solubilized", "setting": "eggshell membrane [2]; [6]", "value": 0, "unit": "%"}, {"measurement": "% solubilized", "setting": "eggshell membrane [3]; (1) Na2S2O5 100 mM, no SDS", "value": 0, "unit": "%"}, {"measurement": "% solubilized", "setting": "eggshell membrane [3]; (2) SDS + Na2S2O5 5 mM, pH 6.2", "value": 0, "unit": "%"}, {"measurement": "% solubilized", "setting": "eggshell membrane [3]; (3) SDS + Na2S2O5 50 mM, pH 6.2", "value": 70, "unit": "%"}, {"measurement": "% solubilized", "setting": "eggshell membrane [3]; (4) SDS + Na2S2O5 100 mM, pH 6.2", "value": 100, "unit": "%"}, {"measurement": "% of hydrolyzation", "setting": "eggshell membrane [4]; membrane 20 mg/ml", "value": 100, "unit": "%"}, {"measurement": "% of hydrolyzation", "setting": "eggshell membrane [4]; membrane 30 mg/ml", "value": 100, "unit": "%"}, {"measurement": "% of hydrolyzation", "setting": "eggshell membrane [4]; membrane 50 mg/ml", "value": 100, "unit": "%"}, {"measurement": "% of hydrolyzation", "setting": "eggshell membrane [4]; membrane 70 mg/ml", "value": 100, "unit": "%"}, {"measurement": "% of hydrolyzation", "setting": "eggshell membrane [4]; membrane 100 mg/ml", "value": 90, "unit": "%"}, {"measurement": "% of hydrolyzation", "setting": "eggshell membrane [4]; membrane 150 mg/ml", "value": 80, "unit": "%"}]}
